Biological target: T1, PAR1 (Homo sapiens, UniProt P25116)
T1 sequence (P25116 22-425): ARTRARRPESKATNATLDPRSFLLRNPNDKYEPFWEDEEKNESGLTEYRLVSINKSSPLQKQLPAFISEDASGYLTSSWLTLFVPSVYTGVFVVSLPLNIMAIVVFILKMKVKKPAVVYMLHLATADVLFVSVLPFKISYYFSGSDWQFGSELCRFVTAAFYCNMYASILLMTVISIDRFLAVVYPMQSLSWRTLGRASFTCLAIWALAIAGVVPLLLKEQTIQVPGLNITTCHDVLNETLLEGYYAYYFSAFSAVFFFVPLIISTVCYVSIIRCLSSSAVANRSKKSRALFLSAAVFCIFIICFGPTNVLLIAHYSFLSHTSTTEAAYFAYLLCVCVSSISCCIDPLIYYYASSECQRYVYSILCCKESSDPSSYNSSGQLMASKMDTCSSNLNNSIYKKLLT
Experiment: Inhibition of PAR1-mediated platelet aggregation induced by TRAP
Type: cell-based
Set-up: endogenous in cells; host or cells: washed human blood platelets from volunteer donors
Conditions: washed platelets from healthy volunteer donors, TRAP (thrombin receptor-activating peptide) as agonist, 96-well format, AUC at 650 nm
Description: Inhibition of PAR1-Mediated Platelet Aggregation
The biological testing of the substances took place in platelet aggregation induced by TRAP (thrombin receptor-activating peptide) in 96-well format. For this purpose, blood was taken from healthy volunteer donors in 20 ml syringes containing 2 ml of 3.13% sodium citrate solution. After centrifugation at 150×g for 20 minutes, the platelet-rich plasma (PRP) was separated off and admixed with 1 μl of PGE1 solution (500 μg/ml in ethanol)/ml of PRP. Incubation at RT for 5 minutes was followed by centrifugation at 120×g for 15 minutes to remove the leukocytes. The leukocyte-free PRP was transferred in 5 ml portions into 15 ml PP tubes and centrifuged at 360×g for 15 minutes in order to pellet the platelets. The plasma was then decanted off and the platelet sediment from 5 ml of PRP was resuspended in 1 ml of Tyrode's (120 mM NaCl, 2.6 mM KCl, 12 mM NaHCO3, 0.39 mM NaH2PO4×H2O, 10 mM HEPES, 0.35% BSA, 5.5 mM glucose, pH 7.4) and adjusted with Tyrode's to a platelet count of 3×10^5/microliter (μl). 13 ml of this cell suspension were then mixed with 866 μl of 10 mM CaCl2 solution, and 120 μl thereof were pipetted into each well of a 96-well plate containing 15 μl of the substance to be tested. After incubation at RT in the dark for 30 minutes, 15 μl of a TRAP solution (70-100 μM) were added as agonist, and kinetics were recorded at 650 nm in a SpectraMax 340 at 37° C. for 20 minutes while shaking. The areas under the curves of negative control (Tyrode's/DMSO) and positive control (15 μl of agonist/DMSO) were calculated and the difference was fixed as the 100% value. The substances to be tested were pipetted as serial dilutions in duplicate determination, the AUC was likewise determined for each substance concentration, and the % inhibition of the AUC compared with the control was calculated. On the basis of the % inhibition, the IC50 was calculated by nonlinear regression analysis according to the 4-parameter equation.

Row | Structure (SMILES) | IC50 [nM]
1 | CCOc1cc2c(cc1C(=O)NC)C(=N)N(CC(=O)c1cc(N(C)C)cc(S(F)(F)(F)(F)F)c1)C2 [Example 2, N-Methyl-2-[2-(3-dimethylamino-5-pentafluorosulfanylphenyl)-2-oxoethyl]-6-ethoxy-3-imino-2,3-dihydro-1H-isoindole-5-carboxamide] | 597
2 | CCOc1cc2c(cc1C(=O)NC)C(=N)N(CC(=O)c1cc(NC)cc(S(F)(F)(F)(F)F)c1)C2 [Example 3, N-Methyl-6-ethoxy-3-imino-2-[2-(3-methylamino-5-pentafluorosulfanylphenyl)-2-oxoethyl]-2,3-dihydro-1H-isoindole-5-carboxamide] | 2
3 | CCOc1cc2c(cc1C(=O)NC)C(=N)N(CC(=O)c1cc(NC(C)=O)cc(S(F)(F)(F)(F)F)c1)C2 [Example 8, N-Methyl-2-[2-(3-acetylamino-5-pentafluorosulfanylphenyl)-2-oxoethyl]-6-ethoxy-3-imino-2,3-dihydro-1H-isoindole-5-carboxamide] | 17
4 | CCOc1cc2c(cc1C(=O)NC)C(=N)N(CC(=O)c1cc(N(S(C)(=O)=O)S(C)(=O)=O)cc(S(F)(F)(F)(F)F)c1)C2 [Example 10, N-Methyl-6-ethoxy-3-imino-2-{2-[3-dimethanesulfonylamino-5-(pentafluorosulfanyl)phenyl]-2-oxoethyl}-2,3-dihydro-1H-isoindole-5-carboxamide] | 718
5 | CCOc1cc2c(c(F)c1OCC)C(=N)N(CC(=O)c1cc(N(C)C(C)=O)cc(S(F)(F)(F)(F)F)c1)C2 [Example 12, N-[3-[2-(5,6-diethoxy-7-fluoro-1-imino-1,3-dihydroisoindol-2-yl)acetyl]-5-(pentafluorosulfanyl)phenyl]-N-methylacetamide] | 387
6 | CCOc1cc2c(c(F)c1OCC)C(=N)N(CC(=O)c1cc(N)c(S(F)(F)(F)(F)F)cc1C)C2 [Example 16, 1-[5-Amino-2-methyl-4-(pentafluorosulfanyl)phenyl]-2-(5,6-diethoxy-7-fluoro-1-imino-1,3-dihydroisoindol-2-yl)ethanone] | 10600
7 | CCOc1cc2c(c(F)c1OCC)C(=N)N(CC(=O)c1cc(N3C(=O)CCC3=O)cc(S(F)(F)(F)(F)F)c1)C2 [Example 18, 1-{3-[2-(5,6-Diethoxy-7-fluoro-1-imino-1,3-dihydroisoindol-2-yl)acetyl]-5-pentafluorosulfanylphenyl}pyrrolidine-2,5-dione] | 175
8 | CCOc1cc2c(c(F)c1OCC)C(=N)N(CC(=O)c1ccc(S(F)(F)(F)(F)F)cc1N)C2 [Example 19, 1-[2-Amino-4-(pentafluorosulfanyl)phenyl]-2-(5,6-diethoxy-7-fluoro-1-imino-1,3-dihydroisoindol-2-yl)ethanone] | 98
9 | CCOc1cc2c(c(F)c1OCC)C(=N)N(CC(=O)c1cc(OC)cc(S(F)(F)(F)(F)F)c1)C2 [Example 21, 2-(5,6-Diethoxy-7-fluoro-1-imino-1,3-dihydroisoindol-2-yl)-1-[3-methoxy-5-(pentafluorosulfanyl)phenyl]ethanone] | 28

Biological target: T1, PAR1
Experiment: PAR1 binding test (radioligand displacement, membrane preparation)
Set-up: expressed in transfected cells; host or cells: High Five insect cells (transient expression), membrane preparation
Conditions: human PAR1 receptor expressed in High Five insect cells, membrane 1 mg/ml, radioligand 20 nM, 60 minutes; read-out: Inhibition of binding IC50
Description: The synthesized substances were examined in a PAR1 binding test. This tested whether the substances can inhibit the binding of a radioactively labeled PAR1 agonist known from the literature at the PAR1 receptor (Ho-Sam Ahn, Mol Pharm, 51:350-356, 1997).
The human PAR1 receptor was expressed transiently in High Five insect cells. From these cells, after 48 hours, a membrane preparation was produced by standard methods, aliquoted into 10 mM Tris-HCl; 0.3 mM EDTA; 1 mM EGTA; 250 mM sucrose pH 7.5, and stored at −80° C.
The substances were preincubated with the membrane at RT for 15 minutes, then the radioligand (ALA-(para-F-Phe)-Arg-ChA-homoArg-(3,4-^3H-Tyr)-NH2; approx. 40 Ci/mMol) was added. The end concentration of the radioligand in the test buffer (50 mM Tris-HCl; 10 mM MgCl2; 1 mM EGTA; 0.1% BSA; 2% DMSO) was 20 nM, that of the membrane 1 mg/ml. After an incubation time of 60 minutes, 25 μl of the mixture were transferred to a 96-well MultiScreenHTS FB microtiter filtration plate (from Millipore), which had been pretreated beforehand with a 0.75% aqueous polyethyleneimine solution for 5 hours at RT. Thereafter, with vacuum extraction, each well was washed four times with 300 μl of buffer (50 mM Tris-HCl; 10 mM MgCl2; 1 mM EGTA). The plate was then dried overnight, 100 μl of scintillator per well were added, and the plate was analyzed after 6 hours in a Wallac MicroBeta (from PerkinElmer) liquid scintillation counter. The nonspecific binding was determined in the presence of 100 μM SCH79797 (PAR-1 antagonist; from Tocris, Cat. No. 1592) and subtracted from all measurements. The 100% value used was a control without inhibitor. The % inhibition values of a substance dilution series were used to calculate the IC50 with the aid of nonlinear regression analysis according to the 4-parameter equation.

Row | Structure (SMILES) | IC50 [nM]
10 | CCOc1cc2c(cc1C(=O)NC)C(=N)N(CC(=O)c1cc(NC(=O)C(F)(F)F)cc(S(F)(F)(F)(F)F)c1)C2 [Example 4, N-Methyl-6-ethoxy-3-imino-2-{2-[3-pentafluorosulfanyl-5-(2,2,2-trifluoroacetylamino)phenyl]-2-oxoethyl}-2,3-dihydro-1H-isoindole-5-carboxamide] | 4800
11 | CCOc1cc2c(c(F)c1OCC)C(=N)N(CC(=O)c1cc(NC(C)=O)cc(S(F)(F)(F)(F)F)c1)C2 [Example 14] | 227
12 | CCOc1cc2c(c(F)c1OCC)C(=N)N(CC(=O)c1cc(NC(=O)CC(C)(C)C)cc(S(F)(F)(F)(F)F)c1)C2 [Example 17, N-{3-[2-(5,6-Diethoxy-7-fluoro-1-imino-1,3-dihydroisoindol-2-yl)acetyl]-5-pentafluorosulfanylphenyl}-3,3-dimethylbutyramide] | 360
13 | CCOc1cc2c(c(F)c1OCC)C(=N)N(CC(=O)c1cc(Br)c(S(F)(F)(F)(F)F)cc1N)C2 [Example 20, 1-[2-Amino-5-bromo-4-(pentafluorosulfanyl)phenyl]-2-(5,6-diethoxy-7-fluoro-1-imino-1,3-dihydroisoindol-2-yl)ethanone] | 128
14 | CCOc1cc(C(=O)CN2Cc3cc(OCC)c(OCC)c(F)c3C2=N)cc(S(F)(F)(F)(F)F)c1 [Example 24, 2-(5,6-Diethoxy-7-fluoro-1-imino-1,3-dihydroisoindol-2-yl)-1-[3-ethoxy-5-(pentafluorosulfanyl)phenyl]ethanone] | 512
15 | CCOc1cc2c(c(F)c1OCC)C(=N)N(CC(=O)c1cc(Cl)cc(S(F)(F)(F)(F)F)c1)C2 [Example 27, 1-[3-Chloro-5-(pentafluorosulfanyl)phenyl]-2-(5,6-diethoxy-7-fluoro-1-imino-1,3-dihydroisoindol-2-yl)ethanone] | 1700
16 | CCOc1cc2c(c(F)c1OCC)C(=N)N(CC(=O)c1cc(N3CCOCC3)cc(S(F)(F)(F)(F)F)c1)C2 [Example 30, 2-(5,6-Diethoxy-7-fluoro-1-imino-1,3-dihydroisoindol-2-yl)-1-[3-morpholin-4-yl-5-(pentafluorosulfanyl)phenyl]ethanone] | 225

From patent publication US8466169B2, “SF5 derivatives as PAR1 inhibitors, production thereof, and use as medicaments” (Sanofi, priority 2008, dated 2013)
